From the supplement of paper PMC6045584
± gives the standard deviation of the averaged measurements.

How the values were obtained:
SOTRASTAURIN/AEB071 = compound: CN1CCN(c2nc(C3=C(c4c[nH]c5ccccc45)C(=O)NC3=O)c3ccccc3n2)CC1 [SOTRASTAURIN/AEB071]; experiment: surviving fraction relative to DMSO-only wells; higher = less growth inhibition; conditions: exposure time: 5 days
Outline: (§1)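 Surviving fraction was calculated by normalising CellTiter-Glo luminescence to the median of DMSO-only wells. Tumour cell lines in log phase were seeded in 384-well plates at 250–500 cells per well, and 24 hours later were exposed continuously for five days to inhibitors at 0.5, 1, 5, 10, 50, 100, 500 and 1000 nM.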

[1] = compound: CNCc1ccc(-c2[nH]c3cc(F)cc4c3c2CCNC4=O)cc1; experiment: as above; conditions: exposure time: 5 days
Outline: as §1

Test System	surviving fraction (SOTRASTAURIN/AEB071; 0.5 nM)	surviving fraction (SOTRASTAURIN/AEB071; 1 nM)	surviving fraction (SOTRASTAURIN/AEB071; 5 nM)	surviving fraction (SOTRASTAURIN/AEB071; 10 nM)	surviving fraction (SOTRASTAURIN/AEB071; 50 nM)	surviving fraction (SOTRASTAURIN/AEB071; 100 nM)	surviving fraction (SOTRASTAURIN/AEB071; 500 nM)	surviving fraction (SOTRASTAURIN/AEB071; 1000 nM)	surviving fraction ([1]; 0.5 nM)	surviving fraction ([1]; 1 nM)	surviving fraction ([1]; 5 nM)	surviving fraction ([1]; 10 nM)	surviving fraction ([1]; 50 nM)	surviving fraction ([1]; 100 nM)	surviving fraction ([1]; 500 nM)	surviving fraction ([1]; 1000 nM)
COLO320DM LARGE INTESTINE	1.09 ± 0.06	1.05 ± 0.14	1 ± 0.046	1.08 ± 0.12	1.01 ± 0.084	1.07 ± 0.047	0.994 ± 0.056	1.05 ± 0.059	1.04 ± 0.067	1.05 ± 0.021	1.12 ± 0.027	0.962 ± 0.1	0.96 ± 0.04	0.933 ± 0.12	0.933 ± 0.066	0.901 ± 0.014
DU4475 BREAST	1.02 ± 0.16	1.2 ± 0.081	1.05 ± 0.038	0.986 ± 0.027	0.989 ± 0.068	1.08 ± 0.068	0.901 ± 0.24	0.844 ± 0.038	1.02 ± 0.066	0.921 ± 0.1	0.969 ± 0.03	0.881 ± 0.063	0.807 ± 0.12	0.696 ± 0.053	0.612 ± 0.088	0.479 ± 0.074
H23 LUNG	1.03 ± 0.015	1.09 ± 0.046	1.07 ± 0.045	1.03 ± 0.016	1.1 ± 0.076	1.11 ± 0.092	1.14 ± 0.037	1.116 ± 0.011	1.05 ± 0.061	1.07 ± 0.066	1.05 ± 0.025	1.1 ± 0.011	1.16 ± 0.076	1.11 ± 0.043	1.14 ± 0.035	1.12 ± 0.021
HCC78 LUNG	1.08 ± 0.35	0.934 ± 0.14	0.96 ± 0.073	1 ± 0.12	1.16 ± 0.18	1.48 ± 0.17	1.11 ± 0.059	1.05 ± 0.058	1 ± 0.17	0.867 ± 0.05	1.12 ± 0.22	1.13 ± 0.2	0.828 ± 0.093	1.02 ± 0.15	0.936 ± 0.091	0.911 ± 0.043
HCC202 BREAST	1.17 ± 0.19	1.354 ± 0.0028	1.39 ± 0.86	1.05 ± 0.41	0.774 ± 0.33	0.88 ± 0.36	1.19 ± 0.05	1.123 ± 0.005	0.936 ± 0.073	1.2 ± 0.39	1.21 ± 0.31	1.08 ± 0.087	1.14 ± 0.21	0.78 ± 0.12	0.844 ± 0.033	0.867 ± 0.13
